# Test results from patent US4419358A, “Isethionic acid salt of 9-cyclohexyl-2-propoxy-9H-purine-6-amine and compositions containing an effective bronchodilating concentration of it” (Mead Johnson & Company, priority 1981, dated 1983).
# Read-outs that look alike come from different tables or passages of the source.
# Assays:
# Type in all cases: physicochemical
# [1] = Water solubility of salts of MJ 13156 (Table 1, Method A or B); details: for Solubility: room temperature (about 25° C.)
# Procedure: More conventional pharmaceutically acceptable acid addition salts of MJ 13156 are not well suited for the present use due to a limited solubility and, in some cases, lack of stability.
# ^1 Solubility data obtained using one of two methods:
# Solubilities of isolated salts determined in standard manner by adding
# H2 O to weighed salt samples and directly obtaining solubility data.
# Solubilities of salts prepared in situ determined by adding a
# moleequivalent of each acid to a 140 mg sample of MJ 13156 and then
# diluting with H2 O in increments to 2.5 mg/mL. A second
# moleequivalent of acid was added to each sample and allowed to stand
# overnight. The precipitates were collected, dried, and weighed to obtain
# [2] = Basicity (ability of MJ 13156 to form salts with weak acids); details: gluconic, lactobionic, acetic, and levulinic acids
# Procedure: (§1) Preparation of the isethionate salt of MJ 13156 is carried out by treating an equivalent of base in ethyl acetate with 2 equivalents of isethionic acid in ethanol-ethyl acetate solution. Chilling the mixture yields the salt which is collected by filtration. The salt can similarly be prepared by using more concentration solutions of both the acid and the base in ethanol.
# [3] = Dissociation of salts/solvates in water
# Procedure: as §1
# [4] = Method B: salts prepared in situ from 140 mg MJ 13156, second moleequivalent of acid added, overnight
# [5] = Method A: H2O added to weighed samples of isolated salts
# [6] = listed as methanesulfonate salt
"Solubility [1, 4]","Solubility [1, 5]",SMILES,also measured
800 µg/mL,–,CCCOc1nc(N)c2ncn(C3CCCCC3)c2n1 [sulfuric],–
–,–,"CCCOc1nc(N)c2ncn(C3CCCCC3)c2n1 [MJ 13156, 9-cyclohexyl-2-propoxy-9H-purine-6-amine]",base strength (in words) [2]: too weak a base to form a salt with these acids
–,100000 µg/mL,"CCCOc1nc(N)c2ncn(C3CCCCC3)c2n1 [isethionic, 9-Cyclohexyl-2-propoxy-9H-purine-6-amine 2-Hydroxyethanesulfonate]",water solubility (in words) ([1]; listed as isethionate salt): clearly the most soluble of all those prepared
–,–,CC(=O)CCC(=O)O [levulinic acid],dissociation in water (in words) [3]: dissociated in water to give MJ 13156 base
–,–,CCCOc1nc(N)c2ncn(C3CCCCC3)c2n1 [acetic acid solvate],dissociation in water (in words) [3]: dissociated in water to give MJ 13156 base
1600 µg/mL,–,CCCOc1nc(N)c2ncn(C3CCCCC3)c2n1 [hydrobromic],–
2400 µg/mL,–,CCCOc1nc(N)c2ncn(C3CCCCC3)c2n1 [nitric],–
1300 µg/mL,–,CCCOc1nc(N)c2ncn(C3CCCCC3)c2n1 [phosphoric],–
–,8000 µg/mL,CCCOc1nc(N)c2ncn(C3CCCCC3)c2n1 [methanesulfonic],"water solubility (in words) [1, 6]: reasonable water solubility; dissociation in water (in words) [3, 6]: dissociates moderately in water"
–,1400 µg/mL,CCCOc1nc(N)c2ncn(C3CCCCC3)c2n1 [hydrochloric],–
